In US20240277829A1, “HIV-1 VACCINATION AND SAMT-247 MICROBICIDE TO PREVENT HIV-1 INFECTION” (priority 2021, published 2024):

Assays:
Assay type in all cases: cell-based
NKG2A^+ NK cells = experiment: Intracellular cytokines of human blood NK cells using SAMT-247 and PMA stimulation with or without zinc chelator; settings: PMA stimulation with or without SAMT-247, presence of TPEN
Protocol: Intracellular cytokines of Human blood NK cells using SAMT-247 and PMA stimulation with or without zinc chelator. The levels of NKG2A^+ NK cells were measured in blood of healthy humans. Human PBMCs were thawed and cultured in R10 in the presence or absence of SAMT-247 and/or PMA for 12 hours. Cells were incubated with or without Zinc chelator TPEN (cat. #P4413-100 MG, 5 μM) for 12 h. Subsequently, PBMCs were surface stained with the following: BUV737 anti-CD3 (SP34-2; cat. #741872, 5 μl), Alexa700 anti-CD20 (2H7; cat. #560631, 5 μl), BV786 anti-CD45 (HI30; cat. #563716, 5 μl) from BD Biosciences; APC-H7 anti-CD11b (ICRF44; cat. #47-0118-42, 5 μl) from eBioscience and PE-Cy7 anti-NKG2A (Z199; cat. #B10246, 5 μl) from Beckman coulter for 30 minutes at room temperature. This was followed by permeabilization with FOX3-transcription buffer set (cat. #00-5523-00) from eBioscience according to the manufacture's recommendation and subsequently intracellular staining with the following: BV750 anti-TNF-α (MAB11; cat. #566359, 5 μl), BUV396 anti-IFN-γ (B27; cat. #563563, 5 μl), BV510 anti-GranB (GB11; cat. #563388, 5 μl) from BD Biosciences; and FITC anti-Perforin (pf-344; cat. #3465-7, 5 μl) from MABTECH for 30 minutes at room temperature. Flow cytometry acquisitions were performed on a FACSymphony A5 and examined using FACSDIVA™ software (BD Biosciences).

NKG2A^+ cells = experiment: Zinc chelation: macaque blood NK cells, SAMT-247 and/or gp120 peptides with or without TPEN; settings: for frequency of IFN-γ^+ NKG2A^+ cells / frequency of TNF-α^+ NKG2A^+ cells: with vs without zinc chelator
Protocol: (§1) Zinc chelation: The frequencies and cytokine levels of NK cells, monocytes and T cells were measured in macaque blood. Cryopreserved PBMCs were thawed and cultured in R10 in the presence/or absence of SAMT-247 and/or gp120 peptides for 12 hours. Cells were incubated with or without Zinc chelator TPEN (cat. #P4413-100 MG, 5 μM) for 12 h. Subsequently, cells were stained for live cells with Live/Dead Blue dye (cat. #L34962, 0.5 μl) from Thermofisher; followed by surface staining with the following: Alexa 700 anti-CD3 (SP34-2; cat. #557917, 5 μl), BV711 anti-CD4 (L200; cat. #563913, 5 μl), BB700 anti-CD8 (RPA-T8; cat. #566452, 5 μl), BUV737 anti-CD20 (2H7; cat. #612848, 5 μl), PE anti-CD45 (D058-1283; cat. #552833, 5 μl), BV786 anti-CCR5 (3A9; cat. #565001, 5 μl), BV496 anti-CD16 (3G8; cat. #612944, 5 μl), BUV661 anti-HLA-DR (G46-6; cat. #612980, 5 μl), BUV805 anti-CD14 (M5E2; cat. #565779, 5 μl) from BD Biosciences; APC-H7 anti-CD11b (ICRF44; cat. #47-0118-42, 5 μl), PE-Cy5 anti-CD95 (ICRF44; cat. #15-0959-42, 5 μl) from eBioscience; APC anti-α4β7, provided by the NIH Nonhuman Primate Reagent Resource (R24 OD010976, and NIAID contract HHSN272201300031C); BV605 anti-CCR6 (G034E3; cat. #353420, 5 μl), BV650 anti-CXCR3 (G025H7; cat. #353730, 5 μl), from Biolegend and PE-Cy7 anti-NKG2A (Z199; cat. #B10246, 5 μl) from Beckman coulter for 30 minutes at room temperature. This was followed by permeabilization with a FOX3-transcription buffer set (cat. #00-5523-00) from eBioscience according to the manufacture's recommendation and subsequently intracellular staining with the following: BV750 anti-TNF-α (MAB11; cat. #566359, 5 μl), BUV395 anti-IFN-γ (B27; cat. #563563, 5 μl), BV510 anti-GranB (GB11; cat. #563388, 5 μl), BV421 anti-IL-10 (JES3-9D7; cat. #564053, 5 μl), PE-CF594 anti-Ki67 (B56; cat. #567120, 5 μl) from BD Biosciences and FITC anti-Perforin (pf-344; cat. #3465-7, 5 μl) from MABTECH for 30 minutes at room temperature. Flow cytometry acquisitions were performed on a FACSYMPHONY™ A5 and examined using FACSDIVA™ software (BD Biosciences).

CD14^+ monocytes = experiment: Zinc chelation: macaque blood monocytes, SAMT-247 and/or gp120 peptides with or without TPEN
Protocol: as §1

Th1 and Th2 cells = experiment: Zinc chelation: macaque blood T cells, SAMT-247 and/or gp120 peptides with or without TPEN; settings: for frequency of IFN-γ^+ Th1^+ cells / frequency of IFN-γ^+ Th1^+CCR5^+α4β7^+ cells / frequency of IFN-γ^+ Th1^+CCR5^−α4β7^− cells / frequency of IFN-γ^+ Th2^+ cells / frequency of IFN-γ^+ Th2^+CCR5^+α4β7^+ cells / frequency of IFN-γ^+ Th2^+CCR5^−α4β7^− cells / frequency of IL-10^+ Th1^+ cells / frequency of IL-10^+ Th1^+CCR5^+α4β7^+ cells / frequency of IL-10^+ Th1^+CCR5^−α4β7^− cells / frequency of IL-10^+ Th2^+ cells / frequency of IL-10^+ Th2^+CCR5^+α4β7^+ cells / frequency of IL-10^+ Th2^+CCR5^−α4β7^− cells / frequency of TNF-α^+ Th1^+ cells / frequency of TNF-α^+ Th1^+CCR5^+α4β7^+ cells / frequency of TNF-α^+ Th1^+CCR5^−α4β7^− cells / frequency of TNF-α^+ Th2^+ cells / frequency of TNF-α^+ Th2^+CCR5^+α4β7^+ cells: with vs without zinc chelator
Protocol: as §1

human NK cells = experiment: Zinc intensity by confocal microscopy
Protocol: Zinc intensity. NKG2A^+ NK cells were isolated from cryopreserved healthy human PBMCs. NK cells were labeled with APC anti-NKG2A (Z199, cat. #A60797) from Beckman coulter, followed by separation with APC MicroBeads (#130-090-855, Miltenyi Biotec Inc.) using manufacturer instructions. Subsequently NK cells were cultured in the presence or absence of SAMT-247 and/or PMA stimulation for 7 hours. Cells were plated on ibidi chamber slides. Cells were washed and treated with zinc chelator or remained untreated for 30 minutes according to the manufacturers' recommendation using a cell-based Zinc assay kit (cat. #ab241014, Abcam). Subsequently cells were washed and stained with Zinc probe-green (cat. #ab241014, Abcam) and DAPI (Molecular Probes, Waltham, MA, USA) was used to visualize nuclei. Signals were visualized with a confocal laser-scanning microscope (Leica SP8, Buffalo Grove, IL, USA). Image processing was performed using the Imaris 9.2.1 software.

[1] = gp120 pooled peptide + SAMT-247
[2] = SAMT-247, with vs without zinc chelator
[3] = gp120 pooled peptide + SAMT-247, with vs without zinc chelator
[4] = gp120 pooled peptide, with vs without zinc chelator
[5] = gp120 pooled peptides ± SAMT-247, TPEN treatment

c1ccc(CN(CCN(Cc2ccccn2)Cc2ccccn2)Cc2ccccn2)nc1 [Zinc chelator, N, N,N′,N′ tetrakis-(2-pyridyl-methyl) ethylendiamine]
No significant changes: SAMT-247's ability to increase granzyme B and perforin in NKG2A^+ cells (NKG2A^+ cells; gp120 peptide stimulation, presence of TPEN)
decreased: IL-10 production by CD14^+ cells (CD14^+ monocytes; [5]) | frequency of CD14^+ cells (CD14^+ monocytes; [5]) | INF-γ and IL-10 production in Th2 CCR5^−α4β7^− cells (Th1 and Th2 cells; TPEN) | number of Th1 CCR5^−α4β7^− cells (Th1 and Th2 cells; week 17, gp120 pooled peptides ± SAMT-247, Zn chelation)
significantly lower: zinc intensity of PMA+SAMT-247 stimulated cells vs not treated with chelator (human NK cells)
significantly reduced: IFN-γ and TNF-α expression in human NKG2A^+ cells (NKG2A^+ NK cells)
decreased percentage: percentage of CCR5^+α4β7^+ Th1 and Th2 cells (Th1 and Th2 cells; week 17, gp120 pooled peptides ± SAMT-247, TPEN)
↓: frequency of IFN-γ^+ NKG2A^+ cells (NKG2A^+ cells; [1]) | frequency of TNF-α^+ NKG2A^+ cells (NKG2A^+ cells; [1]) | frequency of IFN-γ^+ NKG2A^+ cells (NKG2A^+ cells; gp120 pooled peptide) | frequency of TNF-α^+ NKG2A^+ cells (NKG2A^+ cells; gp120 pooled peptide) | frequency of CD14^+ cells (CD14^+ monocytes; [2]) | frequency of IL-10^+ CD14^+ cells (CD14^+ monocytes; [2]) | frequency of CD14^+ cells (CD14^+ monocytes; [3]) | frequency of IL-10^+ CD14^+ cells (CD14^+ monocytes; [3]) | frequency of CD14^+ cells (CD14^+ monocytes; [4]) | frequency of IL-10^+ CD14^+ cells (CD14^+ monocytes; [4]) | frequency of IFN-γ^+ Th1^+ cells (Th1 and Th2 cells; SAMT-247) | frequency of IFN-γ^+ Th1^+CCR5^+α4β7^+ cells (Th1 and Th2 cells; SAMT-247) | frequency of IFN-γ^+ Th1^+CCR5^−α4β7^− cells (Th1 and Th2 cells; SAMT-247) | frequency of IFN-γ^+ Th2^+ cells (Th1 and Th2 cells; SAMT-247) | frequency of IFN-γ^+ Th2^+CCR5^+α4β7^+ cells (Th1 and Th2 cells; SAMT-247) | frequency of IFN-γ^+ Th2^+CCR5^−α4β7^− cells (Th1 and Th2 cells; SAMT-247) | frequency of IL-10^+ Th1^+ cells (Th1 and Th2 cells; SAMT-247) | frequency of IL-10^+ Th1^+CCR5^+α4β7^+ cells (Th1 and Th2 cells; SAMT-247) | frequency of IL-10^+ Th1^+CCR5^−α4β7^− cells (Th1 and Th2 cells; SAMT-247) | frequency of IL-10^+ Th2^+ cells (Th1 and Th2 cells; SAMT-247) | frequency of IL-10^+ Th2^+CCR5^+α4β7^+ cells (Th1 and Th2 cells; SAMT-247) | frequency of IL-10^+ Th2^+CCR5^−α4β7^− cells (Th1 and Th2 cells; SAMT-247) | frequency of TNF-α^+ Th1^+ cells (Th1 and Th2 cells; SAMT-247) | frequency of TNF-α^+ Th1^+CCR5^+α4β7^+ cells (Th1 and Th2 cells; SAMT-247) | frequency of TNF-α^+ Th1^+CCR5^−α4β7^− cells (Th1 and Th2 cells; SAMT-247) | frequency of TNF-α^+ Th2^+ cells (Th1 and Th2 cells; SAMT-247) | frequency of TNF-α^+ Th2^+CCR5^+α4β7^+ cells (Th1 and Th2 cells; SAMT-247) | frequency of IFN-γ^+ Th1^+CCR5^+α4β7^+ cells (Th1 and Th2 cells; Unstim) | frequency of IL-10^+ Th1^+CCR5^+α4β7^+ cells (Th1 and Th2 cells; Unstim) | frequency of IL-10^+ Th1^+CCR5^−α4β7^− cells (Th1 and Th2 cells; Unstim) | frequency of IL-10^+ Th2^+CCR5^+α4β7^+ cells (Th1 and Th2 cells; Unstim) | frequency of TNF-α^+ Th2^+CCR5^+α4β7^+ cells (Th1 and Th2 cells; Unstim) | frequency of IFN-γ^+ Th1^+ cells (Th1 and Th2 cells; [1]) | frequency of IFN-γ^+ Th1^+CCR5^+α4β7^+ cells (Th1 and Th2 cells; [1]) | frequency of IFN-γ^+ Th1^+CCR5^−α4β7^− cells (Th1 and Th2 cells; [1]) | frequency of IFN-γ^+ Th2^+ cells (Th1 and Th2 cells; [1]) | frequency of IFN-γ^+ Th2^+CCR5^+α4β7^+ cells (Th1 and Th2 cells; [1]) | frequency of IFN-γ^+ Th2^+CCR5^−α4β7^− cells (Th1 and Th2 cells; [1]) | frequency of IL-10^+ Th1^+ cells (Th1 and Th2 cells; [1]) | frequency of IL-10^+ Th1^+CCR5^+α4β7^+ cells (Th1 and Th2 cells; [1]) | frequency of IL-10^+ Th1^+CCR5^−α4β7^− cells (Th1 and Th2 cells; [1]) | frequency of IL-10^+ Th2^+ cells (Th1 and Th2 cells; [1]) | frequency of IL-10^+ Th2^+CCR5^+α4β7^+ cells (Th1 and Th2 cells; [1]) | frequency of IL-10^+ Th2^+CCR5^−α4β7^− cells (Th1 and Th2 cells; [1]) | frequency of TNF-α^+ Th1^+CCR5^−α4β7^− cells (Th1 and Th2 cells; [1]) | frequency of TNF-α^+ Th2^+ cells (Th1 and Th2 cells; [1]) | frequency of TNF-α^+ Th2^+CCR5^+α4β7^+ cells (Th1 and Th2 cells; [1]) | frequency of IFN-γ^+ Th1^+CCR5^+α4β7^+ cells (Th1 and Th2 cells; gp120 pooled peptide) | frequency of IFN-γ^+ Th1^+CCR5^−α4β7^− cells (Th1 and Th2 cells; gp120 pooled peptide) | frequency of IFN-γ^+ Th2^+ cells (Th1 and Th2 cells; gp120 pooled peptide) | frequency of IFN-γ^+ Th2^+CCR5^+α4β7^+ cells (Th1 and Th2 cells; gp120 pooled peptide) | frequency of IL-10^+ Th1^+CCR5^+α4β7^+ cells (Th1 and Th2 cells; gp120 pooled peptide) | frequency of IL-10^+ Th1^+CCR5^−α4β7^− cells (Th1 and Th2 cells; gp120 pooled peptide) | frequency of IL-10^+ Th2^+CCR5^+α4β7^+ cells (Th1 and Th2 cells; gp120 pooled peptide) | frequency of IL-10^+ Th2^+CCR5^−α4β7^− cells (Th1 and Th2 cells; gp120 pooled peptide) | frequency of TNF-α^+ Th1^+ cells (Th1 and Th2 cells; gp120 pooled peptide) | frequency of TNF-α^+ Th1^+CCR5^+α4β7^+ cells (Th1 and Th2 cells; gp120 pooled peptide) | frequency of TNF-α^+ Th2^+CCR5^+α4β7^+ cells (Th1 and Th2 cells; gp120 pooled peptide)
significantly decreased: IFN-γ and TNF-α expression in NKG2A^+ cells (NKG2A^+ cells; gp120 peptide and gp120 peptide/SAMT-247 treated cells, TPEN)
